Earlier results on one compound are cited in US11839619B2, “Methods for treatment of pediatric systemic mastocytosis” (The Regents of the University of California, priority 2019, dated 2023).

The conditions of this series: in vivo.

Regarding `CO[C@@H]1[C@H](N(C)C(=O)c2ccccc2)C[C@H]2O[C@]1(C)n1c3ccccc3c3c4c(c5c6ccccc6n2c5c31)C(=O)NC4` [midostaurin], the common side effects entry is “nausea, vomiting, diarrhea, and thrombocytopenia”.
